# In article PMC2818973 (Journal of medicinal chemistry, 2010):
# Conditions: mouse, in vivo, iv
smiles,measurement,value
"CC(=NNc1ccc(I)cn1)c1ccc2c(c1)C1C=CCC1C(c1cc3c(cc1Br)OCO3)N2 (stereo not shown) [Compound 9, N-{1-[4-(6-Bromo-benzo[1,3]dioxol-5-yl)-3a,4,5,9b-tetrahydro-3H-cyclopenta[c]quinolin-8-yl]-ethylidene}-N′-(5-iodo-pyridin-2-yl)-hydrazine]",metabolism and clearance (in words),rapidly metabolized and eliminated via the hepatobiliary system
